Common to all, as to test: relative viability (nuclei count vs DMSO), 5 days (fraction); higher = more cells survive
Compound in test [1]: Cc1nc(NC(=O)N2CCC[C@H]2C(N)=O)sc1-c1ccnc(C(C)(C)C(F)(F)F)c1 [Alpelisib] + C[C@]1(O)C[C@@H](c2nc(-c3ccc4ccc(-c5ccccc5)nc4c3)c3c(N)nccn32)C1 [Linsitinib] (partner 1 µM)
The gist of the method: (§1)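 Relative viability was taken as the ratio of nuclei in treated wells to nuclei in vehicle wells. Lung cancer cell lines in 1536-well plates received compounds by pin tool one day after seeding, either one drug alone or a fixed anchor-drug dose plus five library-drug doses (not always all listed) in √10 steps. Nuclei were counted on 4× images after 5 days of treatment, and values are medians of duplicate plates.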

Compound in test [2]: Cc1nc(NC(=O)N2CCC[C@H]2C(N)=O)sc1-c1ccnc(C(C)(C)C(F)(F)F)c1 [Alpelisib] + Nc1nc2[nH]cc(CCc3ccc(C(=O)N[C@@H](CCC(=O)O)C(=O)O)cc3)c2c(=O)[nH]1 [Pemetrexed] (partner 0.2 µM)
The method in brief:
as §1

Compound in test [3]: CCCS(=O)(=O)Nc1ccc(F)c(C(=O)c2c[nH]c3ncc(-c4ccc(Cl)cc4)cc23)c1F [Vemurafenib] + C[C@@H](Oc1cc(-c2cnn(C3CCNCC3)c2)cnc1N)c1c(Cl)ccc(F)c1Cl [Crizotinib] (partner 1 µM)
The method in brief: as §1

Compound in test [4]: Cc1nc(NC(=O)N2CCC[C@H]2C(N)=O)sc1-c1ccnc(C(C)(C)C(F)(F)F)c1 [Alpelisib] + Cc1nc(Nc2ncc(C(=O)Nc3c(C)cccc3Cl)s2)cc(N2CCN(CCO)CC2)n1 [Dasatinib] (partner 0.075 µM)
The method in brief:
as §1

The text below walks through data of the supplement of paper PMC10307832.

As for UMC-11, the relative viability came to 0.953 in test [1] (first compound 0.04 µM); 1.03 in test [1] (first compound 0.1265 µM); 1.09 in test [1] (first compound 0.4 µM); 0.995 in test [1] (first compound 1.265 µM); 0.955 in test [1] (first compound 4 µM); 0.732 in test [2] (first compound 0.04 µM). Besides, the relative viability in test [2] (first compound 0.1265 µM) worked out at 0.709; in test [2] (first compound 0.4 µM), 0.844; in test [2] (first compound 1.265 µM), 0.699; in test [2] (first compound 4 µM), 0.692; in test [3] (first compound 0.03162 µM) it was 0.638; in test [3] (first compound 0.1 µM) it was 0.616. Moreover, the relative viability in test [3] (first compound 0.3162 µM) stood at 0.629; in test [3] (first compound 1 µM), 0.633; in test [4] (first compound 0.04 µM), 0.426; in test [4] (first compound 0.1265 µM) it was 0.501; in test [4] (first compound 0.4 µM), 0.537; in test [4] (first compound 1.265 µM), 0.455. Moreover, in test [4] (first compound 4 µM), the relative viability amounted to 0.473.
